According to ChEMBL document CHEMBL3436045 (Sci Rep, 2013):

These compounds were tested against T1, Voltage-gated L-type calcium channel (Homo sapiens, UniProt Q13936+Q13698+Q01668+O60840) (assay: (§1) Inhibition of Cav1.2 current measured using QPatch automatic path clamp system in CHO cells expressing Cav1.2, beta-2 and alpha-2/delta-1 subunits).
Format: functional, cell-based, Cricetulus griseus
Parameters: ca sol conc 1.8 mM, temp Ambient
`CO/N=C(\C(=O)N[C@@H]1C(=O)N2C(C(=O)O)=C(CSc3nc(=O)c(O)nn3C)CS[C@H]12)c1csc(N)n1` [CEFTRIAXONE] was tested, and the IC50 was 153.8 µM.
Compound `O=C1CCc2cc(OCCCCc3nnnn3C3CCCCC3)ccc2N1` [CILOSTAZOL] has an IC50 of 91.2 µM.
For `COc1cc(N)c(Cl)cc1C(=O)NC1CCN(CCCOc2ccc(F)cc2)CC1OC` (stereo not given) [CISAPRIDE], the IC50 was 11.8 µM.
`CC(C)N(CCC(C(N)=O)(c1ccccc1)c1ccccn1)C(C)C` (stereo not given) [DISOPYRAMIDE] gave an IC50 of 1036.7 µM.
Compound `O=C(CCCN1CC=C(n2c(=O)[nH]c3ccccc32)CC1)c1ccc(F)cc1` [DROPERIDOL] has an IC50 of 7.6 µM.
Compound `CCCCCCCN(CC)CCCC(O)c1ccc(NS(C)(=O)=O)cc1` (stereo not given) [IBUTILIDE] has an IC50 of 62.5 µM.
`CC(=O)NC[C@H]1CN(c2ccc(N3CCOCC3)c(F)c2)C(=O)O1` [LINEZOLID] showed an IC50 of 105.4 µM.
With `Cc1nc2n(c(=O)c1CCN1CCC(c3noc4cc(F)ccc34)CC1)CCCC2O` (stereo not given) [PALIPERIDONE] the IC50 was 193.9 µM.
Compound `Fc1ccc([C@@H]2CCNC[C@H]2COc2ccc3c(c2)OCO3)cc1` [PAROXETINE] has an IC50 of 3.9 µM.
For `O=C1NC(=O)C(c2ccccc2)(c2ccccc2)N1` [PHENYTOIN], the IC50 was 21.9 µM.
For `CCN1CCN(C(=O)N[C@@H](C(=O)N[C@@H]2C(=O)N3[C@@H]2SC(C)(C)[C@@H]3C(=O)O)c2ccccc2)C(=O)C1=O` [PIPERACILLIN], the IC50 was 1226 µM.
Compound `NC(=O)c1ncn([C@@H]2O[C@H](CO)[C@@H](O)[C@H]2O)n1` [RIBAVIRIN] has an IC50 of 622.5 µM.
`O=C1NCCN1CCN1CCC(c2cn(-c3ccc(F)cc3)c3ccc(Cl)cc23)CC1` [SERTINDOLE] was tested, and the IC50 was 6.3 µM.
With `N[C@@H](CC(=O)N1CCn2c(nnc2C(F)(F)F)C1)Cc1cc(F)c(F)cc1F` [SITAGLIPTIN] the IC50 was 147.1 µM.
`C[C@@H]1CN(c2c(F)c(N)c3c(=O)c(C(=O)O)cn(C4CC4)c3c2F)C[C@H](C)N1` [SPARFLOXACIN] was tested, and the IC50 was 88.8 µM.
Compound `CCN(CC)CCNC(=O)c1c(C)[nH]c(/C=C2\C(=O)Nc3ccc(F)cc32)c1C` [SUNITINIB] has an IC50 of 33.4 µM.
Work on `Cc1cn([C@@H]2C[C@@H](O)[C@H](CO)O2)c(=O)[nH]c1=O` [TELBIVUDINE] yielded an IC50 of 713.9 µM.
`CC(CC(c1ccccc1)c1ccccc1)NC(C)(C)C` (stereo not given) [TERODILINE] gave an IC50 of 4.8 µM.

These compounds were tested against T1, Voltage-gated L-type calcium channel (assay: Inhibition of Cav1.2 current measured using PatchXpress automatic path clamp system in CHO cells expressing Cav1.2, beta-2 and alpha-2/delta-1 subunits).
Format: functional, cell-based, Cricetulus griseus
Parameters: ca sol conc 1.8 mM, temp Ambient
`CCCC(C)C1(CC)C(=O)NC(=O)NC1=O` (stereo not given) [PENTOBARBITAL] was tested, and the IC50 was 299 µM.

These compounds were tested against T1, Voltage-gated L-type calcium channel (assay: as §1).
Format: functional, cell-based, Cricetulus griseus
Work on `C[C@@H](c1ncncc1F)[C@](O)(Cn1cncn1)c1ccc(F)cc1F` [VORICONAZOLE] yielded an IC50 of 414.2 µM.
